According to patent US4775743A, “Peptide derivatives” (Green Cross Corporation, priority 1985, dated 1988):
Square brackets hold non-standard residues; d marks the D form. Ends that are not written are not given here. Peptide text beside a SMILES is read from it. * marks the point of attachment. Desaminotyrosyl = O=C(CCc1ccc(O)cc1)*; Hyp = O=C(O)[C@@H]1C[C@@H](O)CN1

What was measured:
[1] = tested on: rat PRP (platelet-rich plasma) / rat washed platelets; assay: Platelet agglutination inhibitory action (in vitro); type: cell-based; details: agglutination induced by arachidonic acid (1 mM), thrombin (0.8 U/ml) or Ca ionophore A-23187 (4 μM), FIGS. 1, 2 and 3
Protocol: Blood samples were taken from the abdominal artery of rats by means of a syringe containing 3.8% solution of sodium citrate, and the mixture (sodium citrate:blood=1:9) was centrifuged for ten minutes, giving platelet-rich plasma (PRP).
PRP thus collected was placed in cuvettes and kept in an incubator held at 37° C. for two minutes. Solutions of the compound obtained in Example 1 with different concentrations (diluted with a solution of 1.5 mM EDTA in a mixture of Tris-HCl buffer and sodium chloride solution (1:5)) were added, the resulting mixture in each cuvette was incubated for three minutes, and Ca ionophore A-23187 (final concentration: 4 μM), arachidonic acid (1 mM) or thrombin (0.8 U/ml) was added to measure the degree of agglutination. A solution of heparin sodium was used in place of sodium citrate when arachidonic acid was employed as agglutination inducer.

[2] = background statement on the prior-art compound; cited from earlier work

Row | Compound | strength of inhibitory effect against platelet agglutination relative to compound P (control) [1] | half-life in the blood [2]
1 | C[C@H](NC(=O)CNC(=O)[C@@H]1C[C@@H](O)CN1C(=O)[C@@H]1CCCN1C(=O)CCc1ccc(O)cc1)C(=O)NCC(=O)O [HP, N-3-(4-hydroxyphenyl)propionyl-L-prolyl-L-hydroxyprolyl-glycyl-L-alanyl-glycine] (Desaminotyrosyl-P[Hyp]GAG-OH) | about ten | 
2 | P[Hyp]GAG [Compound P] |  | about ten
